From article PMC3479967 (Evidence-based Complementary and Alternative Medicine : eCAM, 2012)

What was measured:
[1] = target: T1, UGT1A10 (Homo sapiens, UniProt Q9HAW8); test: Inhibition of recombinant UGT1A10 activity (4-MU glucuronidation)
T1 sequence (Q9HAW8 26-530): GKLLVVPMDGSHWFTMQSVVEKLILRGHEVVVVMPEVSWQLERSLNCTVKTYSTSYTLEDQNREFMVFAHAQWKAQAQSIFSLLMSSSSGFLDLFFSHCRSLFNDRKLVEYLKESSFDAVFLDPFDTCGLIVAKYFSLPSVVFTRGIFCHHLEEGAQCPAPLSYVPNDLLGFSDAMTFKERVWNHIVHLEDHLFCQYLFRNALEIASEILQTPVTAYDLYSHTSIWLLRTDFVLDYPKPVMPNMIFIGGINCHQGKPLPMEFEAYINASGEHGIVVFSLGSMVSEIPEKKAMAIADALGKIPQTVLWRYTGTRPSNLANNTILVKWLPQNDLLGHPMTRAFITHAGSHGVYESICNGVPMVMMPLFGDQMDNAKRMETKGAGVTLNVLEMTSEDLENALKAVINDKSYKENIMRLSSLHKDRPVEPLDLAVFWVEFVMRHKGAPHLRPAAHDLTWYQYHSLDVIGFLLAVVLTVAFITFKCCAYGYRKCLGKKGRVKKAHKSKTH
Procedure: (§1) A panel of recombinant human UGT supersomes (UGT1A1, UGT1A3, UGT1A4, UGT1A6, UGT1A7, UGT1A8, UGT1A9, UGT1A10, UGT2B4, UGT2B7, UGT2B15, and UGT2B17) expressed in baculovirus-infected insect cells were purchased from BD Gentest Corp. (Woburn, MA, USA).
(§2) 4-MU, a nonselective substrate of UGTs, was used as probe substrate for all UGTs except UGT1A4. Incubations with each individual enzyme were conducted using conditions previously described. There was a 5 min preincubation step at 37°C before the reaction was started by addition of UDPGA. The incubation mixtures were then centrifuged at 20,500 ×g for 15 min to obtain the supernatant. Aliquots (20 μL) were then analyzed by HPLC. The HPLC system (SHIMADZU, Kyoto, Japan) consisted of an SCL-10A system controller, two LC-10AT pumps, a SIL-10A auto injector, and a SPD-10AVP UV detector. Chromatographic separation was achieved using a Kromasil ODS column (4.6 × 150 mm I.D., 5 μm particle size) at a flow rate of 1 mL/min and UV detection at 316 nm. The mobile phase consisted of 10 mM KH2PO4, pH 2.7 (A) and acetonitrile (B). The following gradient was applied at a flow rate of 1 mL/min: 0–4 min 80% A and 20% B, 4.1–8 min 50% A and 50% B, 8.1–12 min, 30% A and 70% B. All experiments were performed in two independent experiments in duplicate.
(§3) A typical incubation mixture contained recombinant human UGTs, 5 mM MgCl2, 5 mM UDPGA, 50 μg/mg protein alamethicin, 50 mM Tris-HCl buffer (pH 7.4), and various probe substrates of UGTs in the absence or presence of different concentrations of inhibitors. […] The final concentration of DMSO in the incubation system was 1% (v/v). […]
(§4) Inhibition data from experiments were graphically represented by Dixon plots. K i values were calculated by nonlinear regression using the equations for competitive inhibition (1), noncompetitive inhibition (2), or mixed inhibition (3), [22] […] The type of inhibition was determined from the enzyme inhibition models. Goodness of fit to kinetic and inhibition models was assessed from the F statistic, r ^2 values, parameter standard error estimates, and 95% confidence intervals. […]

[2] = target: T2, UGT2B4 (Homo sapiens, UniProt P06133); test: Inhibition of recombinant UGT2B4 activity (4-MU glucuronidation)
T2 sequence (P06133 24-528): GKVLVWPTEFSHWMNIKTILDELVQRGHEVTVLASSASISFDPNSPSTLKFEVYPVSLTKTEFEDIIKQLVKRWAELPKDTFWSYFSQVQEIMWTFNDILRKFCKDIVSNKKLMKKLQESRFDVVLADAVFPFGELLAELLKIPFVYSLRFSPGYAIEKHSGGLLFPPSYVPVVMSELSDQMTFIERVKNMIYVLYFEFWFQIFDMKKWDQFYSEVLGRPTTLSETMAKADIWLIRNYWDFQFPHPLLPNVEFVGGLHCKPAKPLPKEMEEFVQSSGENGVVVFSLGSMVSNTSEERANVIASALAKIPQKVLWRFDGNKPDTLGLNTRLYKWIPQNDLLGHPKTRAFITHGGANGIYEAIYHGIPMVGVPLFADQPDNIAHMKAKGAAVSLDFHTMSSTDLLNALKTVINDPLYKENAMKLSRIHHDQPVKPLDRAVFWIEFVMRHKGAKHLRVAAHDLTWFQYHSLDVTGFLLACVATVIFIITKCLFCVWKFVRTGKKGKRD
Procedure: as §1, §2, §3, §4

IC50 [1] [µM] | IC50 [2] [µM] | SMILES
> 100 | > 100 | COc1ccc(-c2oc3c(CC=C(C)C)c(O)cc(O)c3c(=O)c2O)cc1 [Icaritin]
> 100 | > 100 | COc1ccc(-c2oc3c(CC=C(C)C)c(O[C@@H]4O[C@H](CO)[C@@H](O)[C@H](O)[C@H]4O)cc(O)c3c(=O)c2O)cc1 [Icariside I]

SMILES | IC50 [1] [µM] | IC50 [2] [µM]
COc1ccc(-c2oc3c(CC=C(C)C)c(O[C@@H]4O[C@H](CO)[C@@H](O)[C@H](O)[C@H]4O)cc(O)c3c(=O)c2O[C@@H]2O[C@@H](C)[C@H](O)[C@@H](O)[C@H]2O)cc1 [Icariin] | > 100 | > 100
